Where a name gives a salt, the structure may show the parent alone. Blank lines part the entries; values can stand above or below the compound they belong to.
Experiments:
[1] = target: T1, Furin (108-574-Tev-Flag-His) enzyme (Homo sapiens, UniProt P09958); experiment: Furin enzyme assay; type: biochemical
T1 construct: Furin (108-574-Tev-Flag-His) enzyme was expressed and purified from CHO cells; TEV cleavage site (C); FLAG (C); His (C); made in house; host or cells: CHO cells
Procedure, shortened: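 CHO-expressed, purified furin construct at 40 pM in 100 mM HEPES pH7.5, 1 mM CaCl2, 0.005% Triton X-100. Eleven-point 1:3 series, 0.00017–10 μM final, incubated 2 h at room temperature and read on Envision. pXC50 from four-parameter fit.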

[2] = target: T2, furin (endogenous protease) in U20S cells (Homo sapiens, UniProt P09958); experiment: Furin cell-based assay (image-based, Golgi-targeted GFP with BMP10 furin/PCSK cleavage site); conditions: 24-hour incubation, read-out: furin golgi cell pXC50 (converted);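 note: Read-out is mean GFP fluorescence of Golgi puncta per cell by high-content imaging, retained when furin inhibited, over an eleven-point 0.00017–10 µM series, four-parameter fit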
T2 construct: the endogenous protease cleaves GFP; endogenous in cells; host or cells: U2OS cells transduced with a BacMam reporter
T2 sequence (P09958 108-794): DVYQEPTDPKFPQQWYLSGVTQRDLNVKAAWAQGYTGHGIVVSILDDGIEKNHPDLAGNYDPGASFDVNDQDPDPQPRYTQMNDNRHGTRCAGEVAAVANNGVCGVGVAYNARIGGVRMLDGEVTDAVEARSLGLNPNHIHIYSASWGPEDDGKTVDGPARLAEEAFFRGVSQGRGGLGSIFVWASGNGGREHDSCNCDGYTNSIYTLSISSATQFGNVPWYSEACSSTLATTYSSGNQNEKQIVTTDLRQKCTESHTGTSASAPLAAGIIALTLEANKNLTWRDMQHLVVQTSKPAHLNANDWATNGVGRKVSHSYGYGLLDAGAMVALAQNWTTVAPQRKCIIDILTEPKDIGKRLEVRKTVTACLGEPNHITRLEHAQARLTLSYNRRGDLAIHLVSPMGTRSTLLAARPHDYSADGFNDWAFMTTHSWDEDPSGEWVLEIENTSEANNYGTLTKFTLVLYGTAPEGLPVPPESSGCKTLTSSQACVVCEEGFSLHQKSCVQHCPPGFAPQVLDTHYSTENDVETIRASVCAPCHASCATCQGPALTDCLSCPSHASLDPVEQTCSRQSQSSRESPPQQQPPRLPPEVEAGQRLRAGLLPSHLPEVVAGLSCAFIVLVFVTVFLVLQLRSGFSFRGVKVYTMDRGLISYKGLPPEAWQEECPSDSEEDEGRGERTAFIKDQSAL

[3] = tested on: hydroxyproline (a specific marker for collagen) in mouse lung; experiment: Bleomycin induced lung fibrosis model: hydroxyproline assay; type: in vivo; conditions: relative to levels induced by Bleomycin in vehicle treated animals, *p < 0.05
Method: (§1) Preclinical pulmonary fibrosis can be induced by single instillation of Bleomycin to the mouse lung. A 15-day Bleomycin protocol was developed to evaluate compounds of the invention in vivo for their ability to inhibit TGFβ secretion and collagen deposition in the mouse lung. On the day before Bleomycin instillation, compounds were administrated to mice based on the appropriate route and frequency. On the study initiation day, under Ketamine (80 mg/kg) and Xylazine (10 mg/kg) anesthesia, all the animals were cannulated oro-tracheally and 50 μL of normal saline (Sham control) or 0.03 U Bleomycin in 50 μL saline (all groups except sham control group) was delivered into the trachea. Compounds were dosed daily until the end of study on Day 15. On termination day, animals were euthanized using CO2 inhalation. The right lung was collected, washed in normal saline, weighed, flash frozen in liquid nitrogen and stored at −80° C. for hydroxyproline (a specific marker for collagen) and TGFβ assays.
(§2) Flash frozen whole right lung tissues were homogenized in 500 μL of RIPA buffer containing PMSF and protease inhibitor cocktail using zirconium oxide bead based homogenizer (Bullet blender Gold, NextAdvance, Germany). Briefly, tissues were spun in the homogenizer at 4° C. for three cycles of 10 minutes each at 1000 g. A complete uniform tissue mixture was obtained using this procedure. The homogenate volume was made up to 1.5 mL by adding 1 mL of RIPA buffer containing PMSF and protease inhibitor cocktail to 500 μL of homogenate. The homogenate was stored as aliquots of 100-500 μL each at −80° C.
Acid hydrolysis: 500 μL of the homogenized lung parenchyma was transferred to glass vials, and an equal volume of 12N HCl was added (final concentration of HCl: 6N). The vials were purged with nitrogen gas, sealed and incubated overnight (16 h) under anoxic conditions at 110° C.
Post incubation procedures: 35 μL of the sample from each tube or standard (prepared by serial dilution of hydroxyproline stock solution) was added onto a 96 well plate and the assay was performed as per the kit protocol (Quickzyme Biosciences: Cat #: QZBHYPR05). After the final color development, absorbance was measured by colorimetric analysis at 570 nm (using Thermoscan spectrum (Plate Reader) and results were recorded. Standard curve (linear graph) was generated by using hydroxyproline standards provided in the Quickzyme kit.

TGFβ in mouse lung = experiment: Bleomycin induced lung fibrosis model: TGFβ assay; type: in vivo; conditions: relative to levels induced by Bleomycin in vehicle treated animals, *p < 0.05
Method: as §1, §2
Lung tissue homogenates (500 μL) were spun at 13,000 rpm for 20 minutes at 4° C. and supernatants were collected for TGFβ estimation. The assay was performed according to the manufacturer's manual (R&D systems: Cat #SMB100B). Briefly, the lung homogenates were activated by acid activation followed by neutralization to convert latent TGFβ to active TGFβ and the total TGFβ levels in supernatants were measured. Total protein levels in the lung supernatant were also determined.

[4] = tested on: epithelial sodium channel (ENaC); experiment: TEER assay, chronic or acute treatment, Non-CF Polarized Human Lobar Bronchial Epithelial Cells; type: cell-based; design: RTE Before Amil / RTE After Amil: unit not given here; conditions: for Delta RTE / RTE After Amil / RTE Before Amil: chronic treatment (overnight)
Method: Primary cultures of CF delF508 or non-CF HBE cells are seeded onto permeable filter supports and grown for 12-14 days for a significant RTE to be measured for TEER assays.
When the ENaC is active under basal conditions (at least in part due to protease cleavage inside the cell or at the apical membrane), there is a finite RTE that is affected by the Na+ current flowing through ENaC heterotrimers (αβγ or δβγ).

[5] = acute treatment, 3 μM thru 50 μM
[6] = 10 mg/kg, Intra-peritoneal, Twice daily
[7] = 10 mg/kg, Intra-peritoneal, Once daily

T1 sequence (P09958 108-574): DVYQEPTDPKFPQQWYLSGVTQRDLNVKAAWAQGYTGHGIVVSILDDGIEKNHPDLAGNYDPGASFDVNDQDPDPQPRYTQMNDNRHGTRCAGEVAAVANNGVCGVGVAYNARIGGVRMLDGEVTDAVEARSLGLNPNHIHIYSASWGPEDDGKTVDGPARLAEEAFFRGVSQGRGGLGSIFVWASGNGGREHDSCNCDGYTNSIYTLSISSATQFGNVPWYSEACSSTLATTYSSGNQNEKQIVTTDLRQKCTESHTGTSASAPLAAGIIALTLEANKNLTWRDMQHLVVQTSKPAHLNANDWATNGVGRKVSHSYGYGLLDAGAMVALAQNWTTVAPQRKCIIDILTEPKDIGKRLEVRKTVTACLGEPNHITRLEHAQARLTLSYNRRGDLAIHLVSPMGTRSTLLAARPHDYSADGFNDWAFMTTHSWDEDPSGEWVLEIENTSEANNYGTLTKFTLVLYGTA

SMILES: CN(C)C(=O)COC(=O)Cc1ccc(OC(=O)c2ccc(NC(=N)N)cc2)cc1 [Camostat]
Delta RTE after Amil [4, 5]: +15 ± 2
Delta RTE after Volume Additions [4, 5]: +82 ± 4
inhibition of amiloride-sensitive RTE delta (remaining ENaC activity) ([4]; acute treatment, tested at much higher concentrations than Example 11): more strongly
effect on the amiloride-sensitive RTE delta ([4]; chronic overnight treatment, 50 μM, P<0.05): equivalent inhibitory effect
Delta RTE ([4]; 3 μM): +172 ± 20
RTE After Amil ([4]; 3 μM): 615 ± 26
RTE Before Amil ([4]; 3 μM): 443 ± 6
Delta RTE ([4]; 10 μM): +119 ± 1
RTE After Amil ([4]; 10 μM): 506 ± 10
RTE Before Amil ([4]; 10 μM): 387 ± 11
Delta RTE ([4]; 30 μM): +163 ± 8
RTE After Amil ([4]; 30 μM): 635 ± 13
RTE Before Amil ([4]; 30 μM): 472 ± 6
Delta RTE ([4]; 50 μM): +98 ± 2
RTE After Amil ([4]; 50 μM): 446 ± 3
RTE Before Amil ([4]; 50 μM): 348 ± 4

SMILES: CC(=O)NCC1CCN(Cc2cc(Oc3ccc(N4CCN(CC(=O)O)CC4)nc3)nc(-c3cc(Cl)cc(Cl)c3)c2)CC1 [Example 10, 2-(4-(5-((4-((4-(Acetamidomethyl)piperidin-1-yl)methyl)-6-(3,5-dichlorophenyl)pyridin-2-yl)oxy)pyridin-2-yl)piperazin-1-yl)acetic acid, 4 hydrochloride]
furin enzyme pIC50 [1]: 8.7
EC50 [2]: 126 nM
% inhibition of hydroxyproline in lung [3, 6]: 16%
% inhibition of total TGFβ in lung (TGFβ in mouse lung; [6]): 43* %

SMILES: CN1CCN(c2ncc(Oc3cc(CN4CCC(CC(=O)O)CC4)cc(-c4cc(Cl)cc(Cl)c4)n3)cn2)CC1 [Example 207, 2-(1-((2-(3,5-Dichlorophenyl)-6-((2-(4-methylpiperazin-1-yl)pyrimidin-5-yl)oxy)pyridin-4-yl)methyl)piperidin-4-yl)acetic acid]
% inhibition of hydroxyproline in lung ([3]; 10 mg/kg, Oral, Once daily): 46* %
% inhibition of total TGFβ in lung (TGFβ in mouse lung; 10 mg/kg, Oral, Once daily): 66* %

Continued, in another order:

furin enzyme pIC50 [1]: 9.1
EC50 [2]: 10 nM
SMILES: CC(CC1CCN(Cc2cc(Oc3cnc(N4CCN(C)CC4)nc3)nc(-c3cc(Cl)cc(Cl)c3)c2)CC1)C(=O)O (stereo in doubt) [Example 137, (R)-3-(1-((2-(3,5-dichlorophenyl)-6-((2-(4-methylpiperazin-1-yl)pyrimidin-5-yl)oxy)pyridin-4-yl)methyl)piperidin-4-yl)-2-methylpropanoic acid]
% inhibition of hydroxyproline in lung ([3]; 10 mg/kg, Oral, Once daily): 54* %
% inhibition of total TGFβ in lung (TGFβ in mouse lung; 10 mg/kg, Oral, Once daily): 81* %

furin enzyme pIC50 [1]: 8.3
EC50 [2]: 25.1 nM
SMILES: CC(=O)NCC1CCN(Cc2cc(Oc3ccc(N4CCN(CCS(C)(=O)=O)CC4)nc3)nc(-c3cc(Cl)cc(Cl)c3)c2)CC1 [Example 12, N-((1-((2-(3,5-Dichlorophenyl)-6-((6-(4-(2-(methylsulfonyl)ethyl)piperazin-1-yl)pyridin-3-yl)oxy)pyridin-4-yl)methyl)piperidin-4-yl)methyl)acetamide, 4 hydrochloride]
% inhibition of hydroxyproline in lung ([3]; 30 mg/kg, Oral, Once daily): 45* %
% inhibition of total TGFβ in lung (TGFβ in mouse lung; 30 mg/kg, Oral, Once daily): 41* %

furin enzyme pIC50 [1]: 9.1
EC50 [2]: 25.1 nM
SMILES: CNC(=O)NCC1CCN(Cc2cc(Oc3ccc(N4CCN(CCC(=O)O)CC4)nc3)nc(-c3cc(Cl)cc(Cl)c3)c2)CC1 [Example 41, 3-(4-(5-((6-(3,5-Dichlorophenyl)-4-((4-((3-methylureido)methyl)piperidin-1-yl)methyl)pyridin-2-yl)oxy)pyridin-2-yl)piperazin-1-yl)propanoic acid]
% inhibition of hydroxyproline in lung [3, 7]: 39* %
% inhibition of total TGFβ in lung (TGFβ in mouse lung; [7]): 67* %

furin enzyme pIC50 [1]: 9.8
EC50 [2]: 31.6 nM
SMILES: COC(=O)NCC1CCN(Cc2cc(Oc3cnc(N4CCN(CCC(=O)O)CC4)nc3)nc(-c3cc(Cl)cc(Cl)c3)c2)CC1 [Example 62, 3-(4-(5-((6-(3,5-Dichlorophenyl)-4-1(4-(((methoxycarbonyl)amino)methyl)piperidin-1-yl)methyl)pyridin-2-yl)oxy)pyrimidin-2-yl)piperazin-1-yl)propanoic acid, 4 hydrochloride]
% inhibition of hydroxyproline in lung ([3]; 30 mg/kg, Oral, Once daily): −14%
% inhibition of total TGFβ in lung (TGFβ in mouse lung; 30 mg/kg, Oral, Once daily): 7%
